Source: ChEMBL document CHEMBL1201862, “PubChem BioAssay data set” (2004)
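The compound was tested at five concentrations on cells cultured in 96-well plates, with a 48-hour exposure period. Abbreviation: GI50, concentration required for 50% inhibition of growth.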 The source made the active and inactive calls. No stated cut-off is given here; in the data, active = GI50 up to about 1.1 µM and inactive = higher.

How the values were obtained:
Experiment in all cases: growth of human tumour cells (NCI), 48 h
[1] = test system: SF-539
[2] = test system: SK-MEL-2
[3] = test system: NCI-H460
[4] = test system: SNB-19
[5] = test system: SK-MEL-5
[6] = test system: ACHN
[7] = test system: NCI-H23
[8] = test system: U-251
[9] = test system: EKVX
[10] = test system: NCI-H522
[11] = test system: SN12C
[12] = test system: A549
[13] = test system: PC-3
[14] = test system: RPMI-8226
[15] = test system: OVCAR-8
[16] = test system: OVCAR-4
[17] = test system: LOX IMVI
[18] = test system: M14
[19] = test system: K562
[20] = test system: RXF 393

Measured: GI50

O=C1C2CC=CCC2C(=O)N1n1c(Cc2ccccc2)n[nH]c1=O (stereo not given)
inactive: [1] > 100 µM | [2] > 100 µM | [3] > 100 µM | [4] > 100 µM | [5] > 100 µM | [6] > 100 µM | [7] > 100 µM | [8] > 100 µM | [9] > 100 µM | [10] > 100 µM | [11] > 100 µM | [12] > 100 µM | [13] > 100 µM | [14] > 100 µM | [15] > 100 µM | [16] > 100 µM | [17] > 100 µM | [18] > 100 µM | [19] > 100 µM | [20] > 100 µM

Nc1ccc2c(c1)nc1n2C(c2c(F)cccc2F)SC1 (stereo not given)
inactive: [1] > 100 µM | [2] > 100 µM | [3] > 100 µM | [4] > 100 µM | [5] 47.8 µM | [6] > 100 µM | [7] > 100 µM | [8] > 100 µM | [9] > 100 µM | [10] > 100 µM | [11] > 100 µM | [12] > 100 µM | [13] > 100 µM | [14] > 100 µM | [15] > 100 µM | [16] > 100 µM | [17] > 100 µM | [18] > 100 µM | [19] > 100 µM | [20] > 100 µM

N/C(=N\Nc1ccc(C(=O)O)cc1)c1cnccn1
inactive: [1] > 100 µM | [2] > 100 µM | [3] > 100 µM | [4] > 100 µM | [5] > 100 µM | [6] > 100 µM | [7] > 100 µM | [8] > 100 µM | [9] > 100 µM | [10] > 100 µM | [11] > 100 µM | [12] > 100 µM | [13] > 100 µM | [14] > 100 µM | [15] > 100 µM | [16] > 100 µM | [17] > 100 µM | [18] > 100 µM | [19] > 100 µM | [20] > 100 µM

Nc1ncnc2oc(-c3cccs3)nc12
inactive: [1] > 100 µM | [2] > 100 µM | [3] > 100 µM | [4] > 100 µM | [5] > 100 µM | [6] > 100 µM | [7] > 100 µM | [8] > 100 µM | [9] 37.5 µM | [10] > 100 µM | [11] > 100 µM | [12] > 100 µM | [13] > 100 µM | [14] > 100 µM | [15] > 100 µM | [16] > 100 µM | [17] > 100 µM | [18] > 100 µM | [19] > 100 µM | [20] > 100 µM

Cc1c2cc[n+]([O-])cc2c(C)c2c1[nH]c1ccccc12
inactive: [1] 2.99 µM | [2] 12.1 µM | [3] 2.45 µM | [4] 7.13 µM | [5] 6.85 µM | [6] 1.94 µM | [7] 6.04 µM | [8] 3.76 µM | [9] 11.4 µM | [10] 5.97 µM | [11] 4.93 µM | [12] 4.28 µM | [13] 5.04 µM | [14] 6.19 µM | [15] 2.86 µM | [16] 9.95 µM | [17] 1.67 µM | [18] 7.1 µM | [19] 4.84 µM | [20] 6.73 µM
